{"source": "patent US20160220626A1", "about": "“REVERSAL OF INSULIN RESISTANCE AND DYSLIPIDEMIA IN HIGH-FAT DIET-INDUCED OBESE RAT MODELS BY PHYSALIS MINIMA L. EXTRACT” (priority 2015, published 2016)", "format_in_all_cases": "in vivo, male Wistar rats", "key": {"[1]": {"test_system": "insulin resistant high-fat diet-induced obese rats", "test": "Extract supplementation in insulin resistant high-fat diet-induced obese rats: body weight, food intake, lipid profile, insulin resistance", "experimental": "(§1) Extract supplementation. […] The HF fed rats were then sub-divided into four groups of three rats each, i.e. Group 1, negative control/pathological control, treated with distilled water; Group 2, positive control, treated with 150 mg/kg of standard drug metformin (Met); Groups 3 and 4, treated groups, received the P. minima extract at doses of 150 and 300 mg/kg, respectively. Normal control rats also received distilled water throughout the treatment for a period of 12 weeks. All the groups, except the control group, were on high-fat diet during the treatment period.\nBlood and tissue collection and sample preparation. For biochemical analysis after 16 weeks of experimental diet, the blood samples were taken from the tail vein after an overnight fast, whereas after 12 weeks of treatment period, rats were subjected to anesthesia and blood was drawn by cardiac puncture. Liver and pancreas samples were prepared and stained with hematoxylin and eosin, as described by Castro and co-workers. The liver was excised and fixed in buffered formalin. […]\nBiochemical measurements. […] Fasting blood glucose levels were measured using glucometer (Accu Chek Performa, Australia). Fasting insulin levels were quantified using ultra sensitive rat insulin ELISA kit (Crystal Chem, Downers Grove, USA). Insulin sensitivity was evaluated using Homeostatic Model Assessment (HOMA)."}, "[2]": {"test_system": "high-fat diet-induced obese rats", "test": "Renal toxicity assessment after 12 weeks of treatment", "conditions": "serum, 150 mg/kg, mean ± SE", "experimental": "as §1\nBlood and tissue collection and sample preparation. For biochemical analysis after 16 weeks of experimental diet, the blood samples were taken from the tail vein after an overnight fast, whereas after 12 weeks of treatment period, rats were subjected to anesthesia and blood was drawn by cardiac puncture. […]\nBiochemical measurements. […] Fasting blood glucose levels were measured using glucometer (Accu Chek Performa, Australia). Fasting insulin levels were quantified using ultra sensitive rat insulin ELISA kit (Crystal Chem, Downers Grove, USA). Insulin sensitivity was evaluated using Homeostatic Model Assessment (HOMA). Serum total cholesterol, triglycerides, HDL, LDL, VLDL, urea, creatnine, AST, ALP, SGPT, and direct and total bilirubins were analysed using automatic analyser (Hitachi, Roche Diagnostics 902, Tokyo, Japan). […]"}, "[3]": {"test_system": "high-fat diet-induced obese rats", "test": "Histopathology of liver (H&E staining, light microscopy)", "conditions": "metformin 150 mg/kg; P. minima 150 and 300 mg/kg; versus pathological control (FIG. 8)", "experimental": "as §1\n(§2) Blood and tissue collection and sample preparation. For biochemical analysis after 16 weeks of experimental diet, the blood samples were taken from the tail vein after an overnight fast, whereas after 12 weeks of treatment period, rats were subjected to anesthesia and blood was drawn by cardiac puncture. Liver and pancreas samples were prepared and stained with hematoxylin and eosin, as described by Castro and co-workers. The liver was excised and fixed in buffered formalin. The sectioned liver tissue segments were stained with hematoxylin-eosin (H-E) and observed under light microscope."}, "[4]": {"test_system": "high-fat diet-induced obese rats", "test": "Liver toxicity assessment after 12 weeks of treatment", "conditions": "serum, 150 mg/kg, mean ± SE", "experimental": "as §1, §2\nBiochemical measurements. Blood glucose, serum insulin, total cholesterol, triglycerides, HDL, LDL, very low density lipoproteins ([…]), urea, creatnine, aspartate aminotransferase ([…]), alkaline phosphatase (ALP), serum glutamic pyruvic transaminase (SGPT), and direct and total bilirubin were estimated. Fasting blood glucose levels were measured using glucometer (Accu Chek Performa, Australia). Fasting insulin levels were quantified using ultra sensitive rat insulin ELISA kit (Crystal Chem, Downers Grove, USA). Insulin sensitivity was evaluated using Homeostatic Model Assessment (HOMA). Serum total cholesterol, triglycerides, HDL, LDL, VLDL, urea, creatnine, AST, ALP, SGPT, and direct and total bilirubins were analysed using automatic analyser (Hitachi, Roche Diagnostics 902, Tokyo, Japan).\nEvaluation of renal and liver toxicity of P. minima extract: Serum urea, creatnine, aspartate aminotransferase ([…]), alkaline phosphatase (ALP), serum glutamic pyruvic transaminase (SGPT), and total and direct bilirubins were measured to evaluate the toxicity of P. minima towards liver and kidney."}}, "data": [{"molecule": "CN(C)C(=N)N=C(N)N", "note": "[Metformin]", "values": [{"measurement": "reduction in body weights", "setting": "[1]; 150 mg/kg daily, 12 weeks, on high-fat diet, pathological control gained about 109 g, control 75 g", "result": "~35", "unit": "g"}, {"measurement": "average food intake", "setting": "[1]; supplemented groups, 12 weeks of treatment, high-fat diet rats", "result": "Decrease"}, {"measurement": "Creatnine", "setting": "[2]", "result": "0.35 ± 0", "unit": "mg/dL"}, {"measurement": "Urea", "setting": "[2]", "result": "31 ± 0", "unit": "mg/dL"}, {"measurement": "hepatic steatosis (liver morphology, H&E)", "setting": "[3]", "result": "reversed the condition to the normal"}, {"measurement": "ALP", "setting": "[4]", "result": "49.5 ± 1.5", "unit": "U/L"}, {"measurement": "AST (aspartate aminotransferase)", "setting": "[4]", "result": "1.5 ± 0.5", "unit": "U/L"}, {"measurement": "Direct bilirubin", "setting": "[4]", "result": "0.02 ± 0", "unit": "mg/dL"}, {"measurement": "SGPT", "setting": "[4]", "result": "48.5 ± 1.5", "unit": "U/L"}, {"measurement": "Total bilirubin", "setting": "[4]", "result": "0.275 ± 0.025", "unit": "mg/dL"}]}]}
